The subject of assay [1] is S. aureus. As to the kind of experiment: Minimal inhibitory concentration of PAR in solution. The assay is classed as cell-based. As to conditions: for bacterial growth inhibition by PAR in solution: 1 μM; for times less active than PAR100 or PAR200 chains (from MICs in solution): per chain. On the procedure: Staphylococcus aureus (S. aureus, ATCC 25923) strains were used to assess the antibacterial properties of the test samples. Bacterial strain was cultured aerobically at 37° C. in a Mueller Hinton Broth (MHB) medium (Merck, Germany), pH 7.4. One colony was transferred to 10 mL of MHB medium and incubated at 37° C. for 20 h, to provide a final density of 10^6 CFU·mL^−1. To obtain bacteria in the mid logarithmic phase of growth, the absorbance at 620 nm of overnight culture was adjusted of 0.001.
In the following the inventors of the present invention wanted to further elucidate the underlying mechanism that confer to the coatings of the invention the strong inhibitory property on the surface and in the supernatant. As an example the (PAR30/HA)24 coating was further investigated. Accordingly, the minimal inhibitory concentration (MIC) of PAR in solution was determined using bacterial assay as described in Experimental Section. […] Finally for PAR at concentrations of 0.01 mg·mL^−1, inhibition of 100% was shown only for PAR30. Longer or shorter PAR chains (PAR10, PAR100 or PAR200) inhibits only partially (less than 40%) S. aureus growth. […] This reasoning is valid when PAR concentration values are expressed in mass (mg·mL^−1) thus it is related to the number of arginine monomers. However when the graph is plotted with concentrations in μM (and thus proportional in number of chains), which means that concentration is related to number of chains, different interpretation can be made. […] Moreover the MIC100 values obtained for PAR30, PAR100 or PAR200 ranges at very low concentrations (between 1 and 2 μM) which is remarkable when compared to well-known antimicrobial peptides (for example 30 μM for cateslytin with S. aureus, see Adv. Funct. Mater. 2013, 23, 4801-4809). PAR is thus a powerful candidate to fight against S. aureus.
FIG. 12: Graph with the Minimal inhibitory concentration (MIC100) of soluble PAR with 10, 30, 100 or 200 arginine residues. The Minimal inhibitory concentration (MIC100) leading to 100% inhibition of S. aureus were measured in solution. PAR with 10, 30, 100 or 200 arginine residues were tested.

The test system of assay [2] is S. aureus. As to conditions: Adv. Funct. Mater. 2013, 23, 4801-4809; cited from earlier work.
Where [3] appears, read: concentrations up to 0.04 mg·mL−1.

These results are taken from US11471558B2, “Polypeptide and hyaluronic acid coatings” (INSTITUT NATIONAL DE LA SANTE ET DE LA RECHERCHE MEDICALE …, priority 2016, dated 2022).

With poly-L-arginine [PAR100], the “bacterial growth inhibition by PAR in solution” value in the assay with S. aureus [1] is on record as “totally inhibit”. In addition, the “S. aureus growth inhibition by PAR in solution” value (from here on “S. aureus growth inhibition”) with S. aureus [1] (0.03 mg·mL−1) is “total inhibition”; with S. aureus [1] (setting [3]) it was “totally inhibited”.

For cateslytin, the “MIC with S. aureus (antimicrobial peptide, literature)” value in the assay on S. aureus [2] is 30 µM.

As for poly-L-arginine [PAR30], the “S. aureus growth inhibition” value was 100% with S. aureus [1] (0.01 mg·mL−1), “total inhibition” in the assay with S. aureus [1] (0.03 mg·mL−1) and “totally inhibited” in the assay with S. aureus [1] (setting [3]). The MIC90 result in the assay on S. aureus [1] (PAR in solution, S. aureus) is listed as “about 2 μM”. For the same substance, the “times less active than PAR100 or PAR200 chains (from MICs in solution)” value in the assay on S. aureus [1] is 2 times.

As to poly-L-arginine [PAR10], the results for the “S. aureus growth inhibition” value in the assay with S. aureus [1] (0.03 mg·mL−1) and in the assay on S. aureus [1] (setting [3]) were “total inhibition” and “totally inhibited”, respectively. Further, the “times less active than PAR100 or PAR200 chains (from MICs in solution)” value in the assay with S. aureus [1] is 10 times.

Turning to poly-L-arginine [PAR200], the “bacterial growth inhibition by PAR in solution” value in the assay on S. aureus [1] is reported as “totally inhibit”. Besides, the “S. aureus growth inhibition” value in the assay with S. aureus [1] (0.03 mg·mL−1) is on record as “about 45%”; with S. aureus [1] (setting [3]), “totally inhibited”.
